Results reported in patent US8263606B2 (Xenon Pharmaceuticals Inc., priority 2008, dated 2012).
Counter-ions that a name gives are not always drawn.

Columns and labels:
[1] = molecular target: CYP3A4 (Homo sapiens, UniProt P08684); test: Cytochrome P450 (CYP450) Inhibition Assay, CYP3A4 (Vivid fluorescence, BOMCC substrate); settings: human, P450 Baculosomes (recombinant CYP3A4), probe BOMCC (Vivid substrate)
[2] = tested on: sodium channel; test: Guanidine influx assay (14C-guanidine radiotracer flux, in vitro); format: cell-based, human or rat; settings: guanidine influx assay using a known cell line that expresses a sodium channel
How it was run: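 Test agents at half-step dilutions around 1 μM are added to plated cells in low-sodium HEPES buffer, then an aconitine/14C-guanidine mixture; after ambient-temperature incubation, cells are washed and counted. IC50 comes from a sigmoidal fit.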

Sequence of CYP3A4 (P08684 whole entry): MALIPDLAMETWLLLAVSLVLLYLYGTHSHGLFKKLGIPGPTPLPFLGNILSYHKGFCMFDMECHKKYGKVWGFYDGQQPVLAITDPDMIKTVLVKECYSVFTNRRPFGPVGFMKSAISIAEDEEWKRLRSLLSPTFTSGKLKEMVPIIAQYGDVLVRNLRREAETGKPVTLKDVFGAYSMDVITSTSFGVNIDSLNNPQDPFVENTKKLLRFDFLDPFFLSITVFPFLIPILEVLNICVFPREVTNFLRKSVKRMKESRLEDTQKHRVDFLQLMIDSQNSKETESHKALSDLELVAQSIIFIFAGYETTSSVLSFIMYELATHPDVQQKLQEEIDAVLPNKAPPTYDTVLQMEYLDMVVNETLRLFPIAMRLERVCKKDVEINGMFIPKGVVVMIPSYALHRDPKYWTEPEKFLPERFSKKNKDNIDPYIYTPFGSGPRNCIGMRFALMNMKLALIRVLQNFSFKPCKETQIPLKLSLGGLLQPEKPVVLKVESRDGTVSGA

Structure (SMILES)	inhibition at 10 µM [1]	IC50 ([2]; activity level class)	IC50 [2]
O=C1N(C[C@H]2CCCO2)c2c(F)cccc2C12COc1cc3c(cc12)CCO3 (stereo partly drawn) [Example 8.2, 7′-fluoro-1′-[(2R)-tetrahydrofuran-2-ylmethyl]-5,6-dihydrospiro[benzo[1,2-b:5,4-b′]difuran-3,3′-indol]-2′(1′H)-one]	< 50%	1 to 100 nM	–
NC(=O)c1ccc(CN2C(=O)C3(COc4cc5c(cc43)CCO5)c3ccccc32)cc1 (stereo not drawn) [Example 12.31, 4-[(2′-oxo-5,6-dihydrospiro[benzo[1,2-b:5,4-b′]difuran-3,3′-indol]-1′(2′H)-yl)methyl]benzamide]	> 50%	–	1 to 100 nM
O=C1N(Cc2cc(-c3cccnc3)no2)c2ccccc2C12COc1cc3c(cc12)OCCO3 (stereo not drawn) [Example 7.14]	> 50%	1 to 100 nM	–
O=C1N(Cc2ccccc2OC(F)(F)F)c2ccccc2C12COc1cc3c(cc12)OCCO3 (stereo not drawn) [Example 7.27, 1′-[(2-trifluoromethoxy)benzyl]-2,3-dihydrospiro[furo[2,3-g][1,4]benzodioxine-8,3′-indol]-2′(1′H)-one]	< 50%	1 to 100 nM	–
O=C(c1ccc(CN2C(=O)C3(COc4cc5c(cc43)CCO5)c3ccccc32)cc1)N1CCOCC1 (stereo not drawn) [Example 12.33, 1′-[4-(morpholin-4-ylcarbonyl)benzyl]-5,6-dihydrospiro[benzo[1,2-b:5,4-b′]difuran-3,3′-indol]-2′(1′H)-one]	> 50%	–	1000 to 10000 nM
Nc1cccnc1CN1C(=O)C2(COc3cc4c(cc32)OCCO4)c2ccccc21 (stereo not drawn) [Example 11.97, 1′-[(3-aminopyridin-2-yl)methyl]-2,3-dihydrospiro[furo[2,3-g][1,4]benzodioxine-8,3′-indol]-2′(1′H)-one hydrobromide]	> 50%	–	1 to 100 nM
O=C1N(C[C@H]2CCCO2)c2cccc(-c3cccc4c3sc3ccccc34)c2C12COc1cc3c(cc12)CCO3 (stereo partly drawn) [Example 16.2, 4′-dibenzo[b,d]thiophen-4-yl-1′-[(2R)-tetrahydrofuran-2-ylmethyl]-5,6-dihydrospiro[benzo[1,2-b:5,4-b′]difuran-3,3′-indol]-2′(1′H)-one]	> 50%	–	100 to 1000 nM
N#Cc1ccc2c(c1)OCC21C(=O)N(Cc2ccc3c(c2)OCCO3)c2ccccc21 (stereo not drawn) [Example 4.111, 1′-(2,3-dihydro-1,4-benzodioxin-6-ylmethyl)-2′-oxo-1′,2′-dihydrospiro[1-benzofuran-3,3′-indole]-6-carbonitrile]	< 50%	100 to 1000 nM	–
O=C(NCCc1ccc(Cl)cc1)c1ccccc1CN1C(=O)C2(COc3cc4c(cc32)CCO4)c2ccccc21 (stereo not drawn) [Example 12.24, N-[2-(4-chlorophenyl)ethyl]-2-[(2′-oxo-5,6-dihydrospiro[benzo[1,2-b:5,4-b′]difuran-3,3′-indol]-1′(2′H)-yl)methyl]benzamide]	> 50%	–	1000 to 10000 nM
CNC(=O)c1ccc(CN2C(=O)C3(COc4cc5c(cc43)CCO5)c3ccccc32)cc1 (stereo not drawn) [Example 12.28, N-methyl-4-[(2′-oxo-5,6-dihydrospiro[benzo[1,2-b:5,4-b′]difuran-3,3′-indol]-1′(2′H)-yl)methyl]benzamide]	> 50%	–	100 to 1000 nM
CN(C)Cc1cccc2c1C1(COc3cc4c(cc31)CCO4)C(=O)N2C[C@H]1CCCO1 (stereo partly drawn) [Example 11.37, 4′-[(dimethylamino)methyl]-1′-[(2R)-tetrahydrofuran-2-ylmethyl]-5,6-dihydrospiro[benzo[1,2-b:5,4-b′]difuran-3,3′-indol]-2′(1′H)-one]	< 50%	–	1000 to 10000 nM
COc1ccc2c(c1)OCC21C(=O)N(CC2CCCCO2)c2ccccc21 (stereo not drawn) [Example 9.36, 6-methoxy-1′-(tetrahydro-2H-pyran-2-ylmethyl)spiro[1-benzofuran-3,3′-indol]-2′(1′H)-one]	< 50%	1 to 100 nM	–
Cc1cc2c(cc1C)C1(CO2)C(=O)N(CC2CCCCO2)c2ccccc21 (stereo not drawn) [Example 6.2, 5,6-dimethyl-1′-(tetrahydro-2H-pyran-2-ylmethyl)spiro[1-benzofuran-3,3′-indol]-2′(1′H)-one]	> 50%	100 to 1000 nM	–
O=C1N(Cc2ccccc2)c2ccccc2C12COc1cc3c(cc12)CCO3 (stereo not drawn) [Example 4.14, 1′-benzyl-5,6-dihydrospiro[benzo[1,2-b:5,4-b′]difuran-3,3′-indol]-2′(1′H)-one]	> 50%	1 to 100 nM	–
CC(C)Oc1ccc2c(c1)OCC21C(=O)N(C[C@H]2CCCO2)c2ccccc21 (stereo partly drawn) [Example 11.54, 6-(1-methylethoxy)-1′-[(2R)-tetrahydrofuran-2-ylmethyl]spiro[1-benzofuran-3,3′-indol]-2′(1′H)-one]	< 50%	–	100 to 1000 nM
CNC(=O)c1cccnc1CN1C(=O)C2(COc3cc4c(cc32)OCCO4)c2ccccc21 (stereo not drawn) [Example 12.63, N-methyl-2-[(2′-oxo-2,3-dihydrospiro[furo[2,3-g][1,4]benzodioxine-8,3′-indol]-1′(2′H)-yl)methyl]pyridine-3-carboxamide]	< 50%	–	1000 to 10000 nM
O=C(NCCc1cccs1)c1ccc(CN2C(=O)C3(COc4cc5c(cc43)CCO5)c3ccccc32)cc1 (stereo not drawn) [Example 12.30, 4-[(2′-oxo-5,6-dihydrospiro[benzo[1,2-b:5,4-b′]difuran-3,3′-indol]-1′(2′H)-yl)methyl]-N-(2-thiophen-2-ylethyl)benzamide]	> 50%	–	100 to 1000 nM
N#Cc1cccc2c1C1(COc3cc4c(cc31)CCO4)C(=O)N2C[C@H]1CCCO1 (stereo partly drawn) [Example 11.35, 2′-oxo-1′-[(2R)-tetrahydrofuran-2-ylmethyl]-1′,2′,5,6-tetrahydrospiro[benzo[1,2-b:5,4-b′]difuran-3,3′-indole]-4′-carbonitrile]	< 50%	–	100 to 1000 nM
O=C1N(Cc2ncccc2C(F)(F)F)c2cccc(F)c2C12COc1cc3c(cc12)OCCO3 (stereo not drawn) [Example 5.20, 4′-fluoro-1′-{[3-(trifluoromethyl)pyridin-2-yl]methyl}-2,3-dihydrospiro[furo[2,3-g][1,4]benzodioxine-8,3′-indol]-2′(1′H)-one]	< 50%	1 to 100 nM	–
O=C(O)c1ccc(CN2C(=O)C3(COc4cc5c(cc43)CCO5)c3ccccc32)cc1 (stereo not drawn) [Example 11.31, 4-[(2′-oxo-5,6-dihydrospiro[benzo[1,2-b:5,4-b′]difuran-3,3′-indol]-1′(2′H)-yl)methyl]benzoic acid]	< 50%	–	100 to 1000 nM
O=C(O)c1ccccc1CN1C(=O)C2(COc3cc4c(cc32)CCO4)c2ccccc21 (stereo not drawn) [Example 11.30, 2-[(2′-oxo-5,6-dihydrospiro[benzo[1,2-b:5,4-b′]difuran-3,3′-indol]-1′(2′H)-yl)methyl]benzoic acid]	< 50%	–	1000 to 10000 nM
Cn1cc(CN2C(=O)C3(COc4cc5c(cc43)CCO5)c3ccccc32)c(C(F)(F)F)n1 (stereo not drawn) [Example 4.9, 1′-{[1-methyl-3-(trifluoromethyl)-1H-pyrazol-4-yl]methyl}-5,6-dihydrospiro[benzo[1,2-b:5,4-b′]difuran-3,3′-indol]-2′(1′H)-one]	> 50%	100 to 1000 nM	–
O=C1N(CC2CCNC2)c2ccccc2C12COc1cc3c(cc12)CCO3 (stereo not drawn) [Example 11.61, 1′-(pyrrolidin-3-ylmethyl)-5,6-dihydrospiro[benzo[1,2-b:5,4-b′]difuran-3,3′-indol]-2′(1′H)-one]	< 50%	–	1000 to 10000 nM
CC(C)CCN1C(=O)C2(COc3cc4c(cc32)CCO4)c2ccccc21 (stereo not drawn) [Example 4.4, 1′-(3-methylbutyl)-5,6-dihydrospiro[benzo[1,2-b:5,4-b′]difuran-3,3′-indol]-2′(1′H)-one]	> 50%	1 to 100 nM	–
O=C1N(C[C@H]2CCCO2)c2cccc(CN3CCCC3)c2C12COc1cc3c(cc12)CCO3 (stereo partly drawn) [Example 11.38, 4′-(pyrrolidin-1-ylmethyl)-1′-[(2R)-tetrahydrofuran-2-ylmethyl]-5,6-dihydrospiro[benzo[1,2-b:5,4-b′]difuran-3,3′-indol]-2′(1′H)-one]	< 50%	–	1000 to 10000 nM
O=C1N(Cc2ccc(-c3nnn[nH]3)cc2)c2ccccc2C12COc1cc3c(cc12)CCO3 (stereo not drawn) [Example 11.44, 1′-[4-(1H-tetrazol-5-yl)benzyl]-5,6-dihydrospiro[benzo[1,2-b:5,4-b′]difuran-3,3′-indol]-2′(1′H)-one]	> 50%	–	1000 to 10000 nM
CN(C)C(=O)c1ccc(CN2C(=O)C3(COc4cc5c(cc43)CCO5)c3ccccc32)o1 (stereo not drawn) [Example 13.1, N,N-dimethyl-5-[(2′-oxo-5,6-dihydrospiro[benzo[1,2-b:5,4-b′]difuran-3,3′-indol]-1′(2′H)-yl)methyl]furan-2-carboxamide]	> 50%	–	1 to 100 nM
Nc1cc(-c2ccc(CN3C(=O)C4(COc5cc6c(cc54)OCCO6)c4ccccc43)cc2)[nH]n1 (stereo not drawn) [Example 29.2, 1′-[4-(3-amino-1H-pyrazol-5-yl)benzyl]-2,3-dihydrospiro[furo[2,3-g][1,4]benzodioxine-8,3′-indol]-2′(1′H)-one hydrochloride]	> 50%	–	100 to 1000 nM
NCCNC(=O)c1cccnc1CN1C(=O)C2(COc3cc4c(cc32)OCCO4)c2ccccc21 (stereo not drawn) [Example 12.64, N-(2-aminoethyl)-2-[(2′-oxo-2,3-dihydrospiro[furo[2,3-g][1,4]benzodioxine-8,3′-indol]-1′(2′H)-yl)methyl]pyridine-3-carboxamide dihydrochloride]	> 50%	–	100 to 1000 nM
CN(C)C(=O)c1coc(CN2C(=O)C3(COc4cc5c(cc43)CCO5)c3ccccc32)n1 (stereo not drawn) [Example 13.4, N,N-dimethyl-2-[(2′-oxo-5,6-dihydrospiro[benzo[1,2-b:5,4-b′]difuran-3,3′-indol]-1′(2′H)-yl)methyl]-1,3-oxazole-4-carboxamide]	< 50%	–	100 to 1000 nM
